{
  "source": "patent US20230322822A1",
  "about": "“ARYL PHOSPHOROUS OXIDE COMPOUNDS AND USE THEREOF” (Chengdu Di'ao Jiuhong Pharmaceutical Factory, priority 2020, published 2023)",
  "test": "Pharmacokinetic test in SD rats",
  "format": "in vivo",
  "conditions": "male, rat, plasma, PO, 20 mg/kg",
  "procedure": "Six SD rats were taken, which were all male, and about 8-9 weeks old, weighing about 430 g/rat, and fasting but allowed to drink water for 18 hours.\nThe rats were divided into two groups, wherein the rats in group 1 were dosed with compound 2 and the rats in group 2 were dosed with control compound 4, both orally and intragastrically in a dose of 20 mg/kg. A lavage fluid was prepared using 70 mM citric acid buffer (pH 3.0) at an administration volume of 5 mL/kg.\n0.6 mL of blood (EDTA-2K anti-coagulated) was collected from rat orbits at 0.5, 1.5, 3, 4.5, 8, 12, 24, 36, 48 and 72 hours after the administration respectively. The plasma was separated and stored at −70° C., and the plasma samples were analyzed using liquid chromatography tandem mass spectrometry (LC-MS/MS). The plasma concentration-time data of the individual rates was analyzed using a non-compartmental model of DAS3.3.1 software and pharmacokinetic parameters of the test compounds were calculated.",
  "data": [
    {"compound": "COc1cc(N2CCC(N3CCN(C)CC3)CC2)c(C)cc1Nc1ncc(Br)c(Nc2ccc(C)cc2P(C)(C)=O)n1", "note": "[Compound 2]", "values": [
      {"measurement": "AUC(0-t)", "value": 96300, "unit": "ng·h/mL"},
      {"measurement": "Cmax", "value": 2310, "unit": "ng/mL"}
    ]}
  ]
}
